For experiment [1], the target named is T1, human kidney renin (Homo sapiens, UniProt P00797).
T1 construct: human kidney renin purified as described in Bangham; from tissue; host or cells: human kidney
T1 sequence (P00797 67-406): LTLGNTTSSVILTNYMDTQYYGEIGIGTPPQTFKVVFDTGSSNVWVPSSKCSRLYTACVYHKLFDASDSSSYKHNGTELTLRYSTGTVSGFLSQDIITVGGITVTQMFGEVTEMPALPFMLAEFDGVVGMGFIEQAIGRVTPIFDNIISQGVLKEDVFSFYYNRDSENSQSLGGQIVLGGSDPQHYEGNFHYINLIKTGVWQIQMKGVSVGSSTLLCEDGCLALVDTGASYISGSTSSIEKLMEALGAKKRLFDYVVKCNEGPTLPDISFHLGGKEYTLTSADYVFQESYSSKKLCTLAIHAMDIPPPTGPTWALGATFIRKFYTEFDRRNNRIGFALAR
Briefly: Human renin inhibition. Type of experiment: biochemical. As to conditions: purified human kidney renin; dissociation constant of enzyme-inhibitor complex. As for the experimental part:
An assay was carried out in order to determine the inhibitory potency of the peptides of the present invention. The assay measured the inhibition of human kidney renin purified as described in Bangham, D. R., Robertson, I., Robinson, J. I. S., Robinson, C. J., and Tree, M., Clinical Science and Molecular Medicine, 48 (Supp. 2): 136s-159s (1975), and further purified by affinity chromatography on pepstatin-aminohexyl-Sepharase as described in Poe, M., Wu., J. K., Florance, J. R., Radkey, J. A., Bennett, C. D., and Hoogsteen, K., J. Biol. Chem. (1982, in press). The assay was also in accordance with Poe et al. cited above. Results are expressed as KI values, which refer to the dissociation constant of the inhibited enzyme-inhibitor complex. This KI value was obtained as described above. Pepstatin was used as an active control.

Experiment [2] has as its system hog renin. As to conditions: after injection of hog renin into nephrectomized rats; cited from earlier work.

Results on two compounds are retold here after US4477440A, “Renin inhibitors containing an n-terminal disulfide cycle” (Merck & Co., Inc., priority 1983, dated 1984).

Positions of bridges follow the written chain, without caps; N, C: chain ends. Non-standard residues stand in square brackets, D forms with d. Residues, ends and D or L forms follow the SMILES beside them. Sta = CC(C)C[C@H](N)[C@@H](O)CC(=O)O; hCys = N[C@@H](CCS)C(=O)O

In experiment [1], `COC(=O)[C@H](Cc1ccccc1)NC(=O)[C@H](CC(C)C)NC(=O)C[C@H](O)[C@H](CC(C)C)NC(=O)[C@@H]1CCSSCC[C@H](N)C(=O)N2CCC[C@H]2C(=O)N[C@@H](Cc2ccccc2)C(=O)N1` (H-[hCys]PF[hCys][Sta]LF-OMe; disulfide 1-4) returned a Ki of 410 nM.

As to pepstatin, the “blood pressure in vivo” value in experiment [2] was “reduce blood pressure in vivo”.
